Experimental data published in US8680159B2, “Bradykinin 1 receptor modulating compounds” (Gruenenthal GmbH, priority 2010, dated 2014).

What was measured:
[1] = biological target: T1, B1R receptor of the rat (CHO K1 cells stably transfected with the B1R gene of the rat) (Rattus norvegicus, UniProt P97583); assay: Functional study on the bradykinin receptor 1 (B1R), Ca2+ fluorescence (Fluo-4) FLIPR/Novostar assay, rB1R cells; format: cell-based; conditions: CHO-K1, 10 μM, read-out: % inhibition (rat B1R) at 10 μM
T1 construct: expressed in transfected cells; host or cells: CHO K1 cells (Chinese hamster ovary), stably transfected
T1 sequence (P97583 1-337): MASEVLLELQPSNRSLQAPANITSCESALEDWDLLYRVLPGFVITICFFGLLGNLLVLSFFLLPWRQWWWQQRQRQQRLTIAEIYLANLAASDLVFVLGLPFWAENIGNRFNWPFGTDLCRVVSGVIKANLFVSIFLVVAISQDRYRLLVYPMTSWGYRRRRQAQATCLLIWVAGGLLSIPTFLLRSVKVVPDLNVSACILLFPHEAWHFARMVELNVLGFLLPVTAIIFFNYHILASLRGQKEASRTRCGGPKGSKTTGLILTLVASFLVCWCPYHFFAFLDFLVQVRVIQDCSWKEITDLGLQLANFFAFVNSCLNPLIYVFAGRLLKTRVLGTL
Outline: (§1)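 Stably transfected CHO K1 cells carrying human or rat B1R were Fluo-4 loaded and Ca2+ fluorescence read by FLIPR or Novostar. Compounds were added first at 10 μM for % activation, then the EC80 agonist was applied after 6-20 min (human: Lys-Des-Arg9-bradykinin; rat: Des-Arg9-bradykinin). % inhibition is relative to maximum achievable inhibition, and IC50 comes from concentration series.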

[2] = biological target: T2, human B1R receptor (CHO K1 cells stably transfected with the human B1R gene) (Homo sapiens, UniProt P46663); assay: Functional study on the bradykinin receptor 1 (B1R), Ca2+ fluorescence (Fluo-4) FLIPR/Novostar assay, hB1R cells; format: cell-based; conditions: CHO-K1, read-out: % inhibition (human B1R) at 10 μM
T2 construct: expressed in transfected cells; host or cells: CHO K1 cells (Chinese hamster ovary), stably transfected
T2 sequence (P46663 1-353): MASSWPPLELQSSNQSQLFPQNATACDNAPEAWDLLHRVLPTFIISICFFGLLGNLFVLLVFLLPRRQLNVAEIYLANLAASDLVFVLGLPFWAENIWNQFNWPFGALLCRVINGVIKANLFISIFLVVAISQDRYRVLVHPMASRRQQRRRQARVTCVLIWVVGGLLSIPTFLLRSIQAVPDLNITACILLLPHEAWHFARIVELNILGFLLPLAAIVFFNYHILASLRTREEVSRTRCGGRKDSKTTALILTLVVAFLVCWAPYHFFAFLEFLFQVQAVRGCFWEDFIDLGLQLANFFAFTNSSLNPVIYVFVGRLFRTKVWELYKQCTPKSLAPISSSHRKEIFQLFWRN
Outline: as §1

Row | inhibition at 10 µM [1] [%] | inhibition at 10 µM [2] [%] | Structure (SMILES)
1 | 104 | 100 | CCN(C(=O)c1ccc2c(c1)[C@H](NC(=O)c1ccccc1Cl)CC2)C1CCN(c2ccncc2)CC1 [Example H-77, (3R)-3-[(2-Chloro-benzoyl)amino]-N-ethyl-N-(1-pyridin-4-yl-piperidin-4-yl)-2,3-dihydro-1H-indene-5-carboxylic acid amide]
2 | 85 | 31 | CN(C(=O)c1ccc2c(c1)[C@H](NC(=O)c1ccccc1Cl)CC2)C1CCN(c2ccc(F)cc2)CC1 [Example H-78, (3R)-3-[(2-Chloro-benzoyl)amino]-N-[1-(4-fluorophenyl)-pipendin-4-yl]-N-methyl-2,3-dihydro-1H-indene-5-carboxylic acid amide]
3 | 110 | 100 | CCN(C(=O)c1ccc2c(c1)[C@H](NC(=O)c1ccccc1Cl)CC2)C1CCN(c2ccnc(C)c2)CC1 [Example H-79, (3R)-3-[(2-Chloro-benzoyl)amino]-N-ethyl-N-[1-(2-methyl-pyridin-4-yl)-piperidin-4-yl]-2,3-dihydro-1H-indene-5-carboxylic acid amide]
4 | 110 | 100 | CN(C(=O)c1cc(F)c2c(c1)[C@H](NC(=O)c1ccccc1Cl)CCO2)C1CCN(c2ccncc2)CC1 [Example H-80, (4R)-4-[(2-Chloro-benzoyl)amino]-8-fluoro-N-methyl-N-(1-pyridin-4-yl-piperidin-4-yl)-3,4-dihydro-2H-chromene-6-carboxylic acid amide]
5 | 109 | 95 | Cc1cc(N2CCC(N(C)C(=O)c3cc(F)c4c(c3)[C@H](NC(=O)c3ccccc3Cl)CCO4)CC2)nc(C)n1 [Example H-81, (4R)-4-[(2-Chloro-benzoyl)amino]-N-[1-(2,6-dimethyl-pyrimidin-4-yl)-piperidin-4-yl]-8-fluoro-N-methyl-3,4-dihydro-2H-chromene-6-carboxylic acid amide]
6 | 112 | 100 | CN(C(=O)c1ccc2c(c1)[C@H](NC(=O)C1CCc3ccccc31)CC2)C1CCN(c2ccncc2)CC1 (stereo partly drawn) [Example H-82, (3R)-3-(2,3-Dihydro-1H-inden-1-carbonylamino)-N-methyl-N-(1-pyridin-4-yl-piperidin-4-yl)-2,3-dihydro-1H-indene-5-carboxylic acid amide]
7 | 111 | 100 | CN(C(=O)c1ccc2c(c1)[C@H](NC(=O)c1cncc3ccccc13)CC2)C1CCN(c2ccncc2)CC1 [Example H-83, N-[(1R)-6-[Methyl-(1-pyridin-4-yl-piperidin-4-yl)-carbamoyl]-2,3-dihydro-1H-inden-1-yl]-isoquinoline-4-carboxylic acid amide]
8 | 103 | 100 | CN(C(=O)c1ccc2c(c1)[C@H](NC(=O)C1CCOc3ccccc31)CC2)C1CCN(c2ccncc2)CC1 (stereo partly drawn) [Example H-84, N-[(1R)-6-[Methyl-(1-pyridin-4-yl-piperidin-4-yl)-carbamoyl]-2,3-dihydro-1H-inden-1-yl]-3,4-dihydro-2H-chromene-4-carboxylic acid amide]
9 | 103 | 100 | Cc1cc(N2CCC(N(C)C(=O)c3ccc4c(c3)[C@H](NC(=O)CC(C)C)CC4)CC2)ccn1 [Example H-85, (3R)-N-Methyl-3-(3-methyl-butanoylamino)-N-[1-(2-methyl-pyridin-4-yl)-piperidin-4-yl]-2,3-dihydro-1H-indene-5-carboxylic acid amide]
10 | 98 | 100 | Cc1cc(N2CCC(N(C)C(=O)c3ccc4c(c3)[C@H](NC(=O)CC(C)C)CC4)CC2)nc(C)n1 [Example H-86, (3R)-N-[1-(2,6-Dimethyl-pyrimidin-4-yl)-piperidin-4-yl]-N-methyl-3-(3-methyl-butanoylamino)-2,3-dihydro-1H-indene-5-carboxylic acid amide]
11 | 104 | 39 | CN(C(=O)c1cc(F)c2c(c1)[C@H](N1Cc3cccc(Cl)c3C1=O)CCO2)C1CCN(c2ccncc2)CC1 [Example H-87, (4R)-4-(4-Chloro-3-oxo-1,2-dihydro-isoindol-2-yl)-8-fluoro-N-methyl-N-(1-pyridin-4-yl-piperidin-4-yl)-3,4-dihydro-2H-chromene-6-carboxylic acid amide]
12 | 104 | 96 | Cc1cc(N2CCC(N(C)C(=O)c3ccc4c(c3)[C@H](NC(=O)C3CCOCC3)CC4)CC2)ccn1 [Example H-88, N-[(1R)-6-[Methyl-[1-(2-methyl-pyridin-4-yl)-piperidin-4-yl]-carbamoyl]-2,3-dihydro-1H-inden-1-yl]-tetrahydro-pyran-4-carboxylic acid amide]
13 | 89 | 74 | Cc1cc(N2CCC(N(C)C(=O)c3ccc4c(c3)[C@H](NC(=O)C3CCOCC3)CC4)CC2)nc(C)n1 [Example H-89, N-[(1R)-6-[[1-(2,6-Dimethyl-pyrimidin-4-yl)-piperidin-4-yl]-methyl-carbamoyl]-2,3-dihydro-1H-inden-1-yl]-tetrahydro-pyran-4-carboxylic acid amide]
14 | 105 | 62 | CN(C(=O)c1ccc2c(c1)[C@H](NC(=O)c1ccccc1Cl)CC2)C1CCN(C(=O)CCN2CCCCC2)CC1 [Example H-90, (3R)-3-[(2-Chloro-benzoyl)amino]-N-methyl-N-[1-(3-piperidin-1-yl-propanoyl)-piperidin-4-yl]-2,3-dihydro-1H-indene-5-carboxylic acid amide]
15 | 108 | 100 | Cc1cc(N2CCC(N(C)C(=O)c3ccc4c(c3)[C@H](NC(=O)c3cccnc3C(F)(F)F)CC4)CC2)nc(C)n1 [Example H-91, N-[(1R)-6-[[1-(2,6-Dimethyl-pyrimidin-4-yl)-piperidin-4-yl]-methyl-carbamoyl]-2,3-dihydro-1H-inden-1-yl]-2-(trifluoromethyl)-pyridine-3-carboxylic acid amide]
16 | 106 | 100 | Cc1cc(N2CCC(N(C)C(=O)c3ccc4c(c3)[C@H](NC(=O)c3cccnc3C(F)(F)F)CC4)CC2)ccn1 [Example H-92, N-[(1R)-6-[Methyl-[1-(2-methyl-pyridin-4-yl)-piperidin-4-yl]-carbamoyl]-2,3-dihydro-1H-inden-1-yl]-2-(trifluoromethyl)-pyridine-3-carboxylic acid amide]
17 | 103 | 100 | Cc1cc(N2CCC(N(C)C(=O)c3ccc4c(c3)[C@H](NC(=O)CCC3CCCC3)CC4)CC2)ccn1 [Example H-93, (3R)-3-(3-Cyclopentyl-propanoylamino)-N-methyl-N-[1-(2-methyl-pyridin-4-yl)-piperidin-4-yl]-2,3-dihydro-1H-indene-5-carboxylic acid amide]
18 | 99 | 100 | Cc1cc(N2CCC(N(C)C(=O)c3ccc4c(c3)[C@H](NC(=O)CCC3CCCC3)CC4)CC2)nc(C)n1 [Example H-94, (3R)-3-(3-Cyclopentyl-propanoylamino)-N-[1-(2,6-dimethyl-pyrimidin-4-yl)-piperidin-4-yl]-N-methyl-2,3-dihydro-1H-indene-5-carboxylic acid amide]
19 | 104 | 100 | Cc1cc(N2CCC(N(C)C(=O)c3ccc4c(c3)[C@H](NC(=O)c3cc(C)on3)CC4)CC2)ccn1 [Example H-95, 5-Methyl-N-[(1R)-6-[methyl-[1-(2 methyl-pyridin-4-yl)-piperidin-4-yl]-carbamoyl]-2,3-dihydro-1H-inden-1-yl]-isoxazole-3-carboxylic acid amide]
20 | 104 | 100 | Cc1cc(N2CCC(N(C)C(=O)c3ccc4c(c3)[C@H](NC(=O)c3cc(C)on3)CC4)CC2)nc(C)n1 [Example H-96, N-[(1R)-6-[[1-(2,6-Dimethyl-pyrimidin-4-yl)-piperidin-4-yl]-methyl-carbamoyl]-2,3-dihydro-1H-inden-1-yl]-5-methyl-isoxazole-3-carboxylic acid amide]
21 | 105 | 100 | CN(C(=O)c1ccc2c(c1)[C@H](NC(=O)c1ccccc1Cl)CC2)C1CCN(c2cc[n+]([O-])cc2)CC1 [Example H-98, (3R)-3-[(2-Chloro-benzoyl)amino]-N-methyl-N-[1-(1-oxido-pyridin-1-ium-4-yl)-piperidin-4-yl]-2,3-dihydro-1H-indene-5-carboxylic acid amide]
